Data set [1] concerns patient with functional dyspepsia (stomach). The data set is described as follows: Barostat test in human. Format: in vivo. The method, then: A patient with functional dyspepsia, based on Rome II standard, was fasted overnight (for not shorter than 12 hours). Oral administration of 300 mg of a compound a, hydrochloride, and placebo has been conducted by a responsive doctor of clinical trial. Thirty minutes later, a polyvinyl adhesive plastic bag with dual ducts (1100 mL, maximal diameter: 17 cm, from Meditronic-Synetics Medical Ltd., Enfield, UK) was folded up to a small piece and introduced into stomach through mouth or nose, and the ducts were fixed on chin by an adhesive tape. The location of the bug in fundus of stomach was confirmed by radioscopy.
The polyvinyl tubing was connected to a computer controlled volume-replacement pressure regulator. This regulator can simultaneously monitor pressure and volume with sampling rate of 8 times per second, and also can load volume ramps and pressurizing steps with various rates. Trial subjects were kept in recumbent position and predetermined volume of air (300 mL) was infused for 2 minutes to expand the bug in stomach, and again the air was evacuated completely. After stabilization for 10 minutes, the trial subjects were allowed to keep relaxed by slightly skewing knees on a bed.
After 30 minutes of adaptation period, minimum invasive gastric dilatation pressure (MDP), that is, the minimum pressure to give not less than 30 mL of the bag inner volume, was measured by increasing inner pressure by 1 mmHg per minute. This pressure (MDP) […] equilibrates intraabdominal pressure. Then, pressure was increased from the MDP stepwisely with isobaric expansions by each 2 mmHg. At each pressure increase step, corresponding inner volume of stomach was recorded, and kept for 2 minutes. At the end of each expansion step, patients were asked to express feeling of stimulation at upper abdomen by scores from 0 to 6 with verbal explanation. The expansion procedure was terminated when inner volume of the bag reached to 1000 mL or the patient complained discomfort or soreness (score: 5 or 6).
Further, after 30 minutes of adaptation period, the pressure level was adjusted to the MDP+2 mmHg, and kept for 90 minutes. Thirty minutes later, a mixed liquid diet (200 mL, 300 kcal, protein 13%, carbohydrate 39%, Nutridrink™, Nutricia) was given by oral ingestion, followed by measurement of stomach tension over further 60 minutes.
Average inner volume of the balloon for each 2 minutes expansion period was obtained from the recorded value. […]
To evaluate stomach tension before and after meal, average volume of the balloon was measured continuously at every 5 minutes. The maximum relaxation value was obtained as difference between average volume before meal and the maximum volume after meal among average volumes measured at every 5 minutes after meal.

The subject of data set [2] is adult male mongrel dog (gastric fundus). The data set is described as follows: Barostat test in dog. Conditions: for Volume change of Air-bag / Activity of alleviating impaired gastric accommodation (in words): i.v.; for Volume change of Air-bag: 5 minutes after liquid test meal, mean air-bag volume after vs before agent, mean ± standard error; for Volume increase of air-bag, ΔmL: method of Example 1, N=1; for Activity of alleviating impaired gastric accommodation (in words): barostat test in dog. Format: in vivo. The method, then:
A gastric fistula (KN-365, D-14-C from Natsume Seisakusyo Co., Ltd.) was installed permanently in the center of stomach anterior wall of an adult male mongrel dog, and was used for air-bag insertion.
The fistula-installed dog was abstained from food for not shorter than 18 hours, followed by opening the gastric fistula and washing inside stomach by infusion of saline into stomach, before starting experiment. This procedure was repeated 2 to 3 times as appropriate. The air-bag (maximal volume: about 750 mL) fabricated using a commercially available polyethylene bag was inserted into stomach through gastric fistula and fixed using a silicone plug, followed by connection to barostat instrument and starting measurement under nonrestraint condition. Volume change of the air-bag was recorded on both a recorder and a computer.
After insertion of the air-bag into stomach, the bag was once infused with air up to 500 mL, followed by immediate and complete air evacuation, and starting recording by adjusting initial inner pressure of the air-bag to be 6±2 mmHg. After stabilization for not shorter than 15 minutes, 50 mL of a liquid test meal (12.5 kcal, Besvion^RT from Fujisawa Pharmaceutical Co., Ltd.) dissolved in warm water (30 to 40° C.) was […] administered into stomach. Five minutes after administration of the test meal, a solvent and test agents were administrated intravenously. Mean air-bag volumes (mL) for each 5 minutes before administration of the test meal, along with before and after administration of the test agents were calculated using a computer analyzing system to compare differences in mean air-bag volumes (mL) before and after administration of the test agents.

The conditions of data set [3]: known side effect; cited from earlier work.

Where a name gives a salt, the structure may show the parent alone.

Consider `COc1cc(O)c(C(=O)Nc2nc(C(=O)NCCN(C(C)C)C(C)C)cs2)cc1OC` [Compound a, hydrochloride, 2-[N-(4,5-dimethoxy-2-hydroxybenzoyl)amino]-4-[(2-diisopropylaminoethyl)aminocarbonyl]-1,3-thiazole], for which the “Effect on maximum relaxation value of stomach after meal (in words)” value in data set [1] (300 mg, p.o.) is recorded as “significantly increased”. In data set [1] (300 mg, p.o., N=17, after meal), the “Change in max. relaxation volume” value was 24.3 ± 172.3 mL and the “Max. relaxation volume after treatment” value came to 313.4 mL. Also, in data set [1] (baseline of the 300 mg p.o. group, N=17, after meal), the “Max. relaxation volume before treatment” value is 295.5 mL. Moreover, the “Volume change of Air-bag” value in data set [2] (3 mg/kg) is 50.8 ± 16.7 mL. Also, in data set [2] (3 mg/kg, listed as compound a, hydrochloride), the “Volume change of Air-bag” value stood at 50.8 mL. The “Expansion effect compared with cisapride” value in data set [2] (compound a 3 mg/kg i.v. vs cisapride 0.3 mg/kg i.v.) was “surpassed that of cisapride”.

For `COc1cc(O)c(C(=O)Nc2cc(C(=O)NCCN(C(C)C)C(C)C)co2)cc1OC.O=C(O)/C=C\C(=O)O` [Compound d, Maleate, 2-[N-(4,5-dimethoxy-2-hydroxybenzoyl)amino]-4-[(2-diisopropyl-aminoethyl)aminocarbonyl]furan], the “Volume increase of air-bag, ΔmL” value in data set [2] (3 mg/kg i.v.) was determined as 11.4 mL. In addition, the “Activity of alleviating impaired gastric accommodation (in words)” value (from here on “Activity”) in data set [2] is listed as “excellent activity of alleviating impaired gastric accommodation”.

`COc1ccc(C(=O)Nc2nc(C(=O)NCCN(C(C)C)C(C)C)cs2)cc1OC` [Compound c, hydrochloride, 2-[N-(4,5-dimethoxy-benzoyl)amino]-4-[(2-diisopropylaminoethyl)amino-carbonyl]-1,3-thiazole]: in data set [2] (1 mg/kg i.v.), the “Volume increase of air-bag, ΔmL” value is on record as 58.2 mL. Further, the “Activity” value in data set [2] is “excellent activity of alleviating impaired gastric accommodation”.

Turning to `COc1cc(N)c(Cl)cc1C(=O)NC1CCN(CCCOc2ccc(F)cc2)CC1OC` (stereo not drawn) [Cisapride, reference compound], the “Volume change of Air-bag” value in data set [2] (0.3 mg/kg) stood at 3.6 ± 25.0 mL. Further, the “Extension of Q-T interval (adverse effect)” value in data set [3] is “serious side effect such as extension of Q-T interval”.

In the case of `COc1cc(Cl)c(C(=O)Nc2nc(C(=O)NCCN(C(C)C)C(C)C)cs2)cc1OC` [Compound b, Maleate, 2-[N-(2-chloro-4,5-dimethoxybenzoyl)-amino]-4-[(2-diisopropylaminoethyl)aminocarbonyl]-1,3-thiazole], in data set [2] (1 mg/kg i.v.), the “Volume increase of air-bag, ΔmL” value is reported as 29.7 mL. For the same compound, the “Activity” value in data set [2] is reported as “excellent activity of alleviating impaired gastric accommodation”.

The values above are taken from patent publication US20200375954A1, “THERAPEUTIC AGENT FOR FOOD COMPETENCE DISORDER IN STOMACH” (ZERIA PHARMACEUTICAL CO., LTD., priority 2002, published 2020).
